Values joined by “and” are separate entries in the source; they are usually repeats but may differ in a detail not shown here. Equal values may be shown once. Read-outs that look alike come from different tables or passages of the source.

Two compounds from PMC10683025, “Discovery of a Hydroxylamine-Based Brain-Penetrant EGFR Inhibitor for Metastatic Non-Small-Cell Lung Cancer” (Journal of Medicinal Chemistry, 2023) can be followed below.

Data set [1] concerns the target T1, WEE2 (Homo sapiens, UniProt P0C1S8).
T1 construct: purchased Eurofins DiscoverX
Briefly: KINOMEScan. It counts as binding. The note with it: WEE2, 1 µM; read-out: Percent Control.
Source text: (§2) Percent control was mapped onto the kinome tree using TREEspot.

The target in data set [2] is T2, ASK1 (Homo sapiens, UniProt Q99683).
T2 construct: purchased Eurofins DiscoverX (KINOMEscan)
Kind of data set: KINOMEScan. The data set is classed as binding. The note with it: ASK1, 1 µM; read-out: Percent Control.

Data set [3] deals with T3, YANK1 (Homo sapiens, UniProt Q8WU08).
T3 construct: purchased Eurofins DiscoverX (KINOMEScan service)
Kind of data set: KINOMEScan. It counts as binding. The note with it: YANK1, 1 µM; read-out: Percent Control.
Source text: as §2

Data set [4] deals with T4, ABL1(H396P)-phosphorylated (Homo sapiens, UniProt P00519, H396P).
T4 construct: purchased Eurofins DiscoverX
Kind of data set: KINOMEScan. The data set is classed as binding. The conditions noted are these: read-out: Percent Control.
Source text: as §2

Data set [5] deals with T5, AAK1 (Homo sapiens, UniProt Q2M2I8).
T5 construct: purchased Eurofins DiscoverX
Briefly: KINOMEScan. The data set is classed as binding. The note with it: AAK1, 1 µM; read-out: Percent Control.
Source text: as §2

The target in data set [6] is T6, BRK (Homo sapiens, UniProt Q13882).
T6 construct: purchased Eurofins DiscoverX (KINOMEscan)
Briefly: KINOMEScan. It counts as binding. The note with it: read-out: Percent Control.
Source text: as §2

Data set [7] deals with T7, ERBB2 (Homo sapiens, UniProt P04626).
T7 construct: purchased Eurofins DiscoverX (contract assay)
Kind of data set: KINOMEScan KdELECT Kd determination. The note with it: read-out: Kinase Kd. It counts as binding. The protocol:
(§1) In vitro kinase activity (inhibitor binding constants (Kd) and biochemical inhibition (IC50’s)) were assessed by Eurofins DiscoverX (Kd determinations) and Eurofins Cerep (biochemical IC50 determinations).

The target in data set [8] is T8, LYN (Homo sapiens, UniProt P07948).
T8 construct: purchased Eurofins DiscoverX (contract assay)
Kind of data set: KINOMEScan KdELECT Kd determination. The note with it: read-out: Kinase Kd. It counts as binding. The method, then:
as §1

The target of data set [9] is T9, BCR-ABLwt (Nonphos.) (Homo sapiens, UniProt P00519).
T9 construct: purchased Eurofins DiscoverX (contract assay)
Kind of data set: KINOMEScan KdELECT Kd determination. It counts as binding. The note with it: read-out: Kinase Kd. The method, then:
as §1

Data set [10] concerns the target T10, CYP1A2 (Homo sapiens, UniProt P05177).
T10 construct: tissue BD Gentest; host or cells: pooled human liver microsomes
Briefly: CYP450 inhibition in human liver microsomes. The data set is classed as in vitro ADME. On the technique in general: Liver microsomes are vesicles of endoplasmic reticulum, rich in cytochrome P450 enzymes.
Procedure: (§3) The activities tested were CYP1A2-mediated phenacetin O-demethylation, CYP2C19-mediated (S)-mephenyotin 4′-hydroxylation, CYP2C9-mediated diclofenac 4′-hydroxylation, CYP2D6-mediated dextromethorphan O-demethylation, and CYP3A4-mediated midazolam 1′-hydroxylation. […] The reactions were initiated by adding NADPH (1 mM final concentration) after a 5 min preincubation, and the assay was run in duplicate (n = 2). Samples were analyzed by ultra-performance liquid chromatography tandem mass spectrometry (UPLC-MS/MS).

Data set [11] concerns the target T11, ALK (Homo sapiens, UniProt Q9UM73).
T11 construct: purchased Eurofins DiscoverX (KINOMEscan)
Kind of data set: KINOMEScan. The data set is classed as binding. The note with it: read-out: Percent Control.
Source text: as §2

In data set [12] the target is T12, ABL2 (Homo sapiens, UniProt P42684).
T12 construct: purchased Eurofins DiscoverX
Briefly: KINOMEScan. The conditions noted are these: ABL2, 1 µM; read-out: Percent Control. The data set is classed as binding.
Source text: as §2

The nature of data set [13]: Metabolic stability in hepatocytes. It counts as in vitro ADME, beagle dog. The conditions noted are these: for Remaining Percentages: dog hepatocytes.
Procedure: Hepatocyte stability was assessed in duplicate (n = 2) at a working cell density of 0.5 × 10^6 cells/mL with hepatocytes from human (BiolVT), Sprague-Dawley rat (BiolVT), cynomolgus monkey (RILD) or beagle dog (BiolVT). […] The in vitro half-life and intrinsic clearances were determined as previously described.[76]
In vitro half-life (in vitro t1/2) was determined from the slope value in [drawing 1] where k was determined by linear regression of the natural logarithm of the remaining percentage of the parent drug vs the incubation time curve.
Data set [14] deals with TA1535. On the set-up: species or system Salmonella.
For data set [15], the target named is T13, BLK (Homo sapiens, UniProt P51451).
T13 construct: purchased Eurofins DiscoverX (KINOMEscan)
Briefly: KINOMEScan. The conditions noted are these: read-out: Percent Control. The data set is classed as binding.
Source text: as §2

In data set [16] the target is T14, ABL1(F317L)-nonphosphorylated (Homo sapiens, UniProt P00519, F317L).
T14 construct: purchased Eurofins DiscoverX
Kind of data set: KINOMEScan. The data set is classed as binding. The conditions noted are these: read-out: Percent Control.
Source text: as §2

For data set [17], the target named is CYP2D6 (Homo sapiens, UniProt P10635). Briefly: CYP450 inhibition in human liver microsomes. It counts as in vitro ADME. Further details: tissue BD Gentest 452117; host or cells: pooled human liver microsomes, mixed gender.
Procedure: as §3
In data set [18] the target is T15, AURKB (Homo sapiens, UniProt Q96GD4).
T15 construct: purchased Eurofins DiscoverX (KINOMEscan)
Kind of data set: KINOMEScan. The data set is classed as binding. The conditions noted are these: read-out: Percent Control.

Data set [19] deals with T16, AXL (Homo sapiens, UniProt P30530).
T16 construct: purchased Eurofins DiscoverX (KINOMEscan)
Kind of data set: KINOMEScan. The conditions noted are these: read-out: Percent Control. It counts as binding.
Source text: as §2

Data set [20] addresses T17, ADCK4 (Homo sapiens, UniProt Q96D53).
T17 construct: purchased Eurofins DiscoverX (KINOMEscan)
Briefly: KINOMEScan. The data set is classed as binding. The note with it: ADCK4, 1 µM; read-out: Percent Control.
Source text: as §2

Data set [21] addresses T18, ABL1(F317L)-phosphorylated (Homo sapiens, UniProt P00519, F317L).
T18 construct: purchased Eurofins DiscoverX
Kind of data set: KINOMEScan. The data set is classed as binding. The conditions noted are these: read-out: Percent Control.
Source text: as §2

The target of data set [22] is T19, BRSK2 (Homo sapiens, UniProt Q8IWQ3).
T19 construct: purchased Eurofins DiscoverX (KINOMEscan)
Kind of data set: KINOMEScan. The data set is classed as binding. The conditions noted are these: BRSK2, 1 µM; read-out: Percent Control.
Source text: as §2

In data set [23] the target is T20, YSK4 (Homo sapiens, UniProt Q56UN5).
T20 construct: purchased Eurofins DiscoverX (KINOMEScan service)
Kind of data set: KINOMEScan. The data set is classed as binding. The conditions noted are these: YSK4, 1 µM; read-out: Percent Control.

The subject of data set [24] is Salmonella strains (TA98, TA100, TA1537, and TA1535). The conditions noted are these: ± rat liver S9, 4 strains; 9 valid up to 50 μM. The method, then: Compounds were assessed for mutagenicity at the Eurofins Panlabs in 384-well plates using four Salmonella strains: TA98, to probe for frameshift mutation (with quercetin as control), TA100 and TA1535, to probe for base pair insertions/deletions (with streptozotocin as control), and TA1537, to probe for frameshift mutations (with aminacridine as control) as previously described.[78] Each compound was incubated at 37 °C for 96 h at four different concentrations (5, 10, 50, and 100 μM), with each concentration tested using 48 replicates, both with and without rat liver S9 metabolic activation. A concurrent bacterial cytotoxicity assay was run at 0.6, 1.2, 2.5, 5, 10, 25, 50, and 100 μM to rule out false negatives. Bacterial cytotoxicity was expressed as percent of control growth (OD650). Compounds with growth of less than 60% control were flagged and considered bacterial cytotoxic. […] Significances of the positive counts between the treatment and control were determined using a one-tailed Fisher’s exact test.

CYP2D6, sequence (P10635 whole entry): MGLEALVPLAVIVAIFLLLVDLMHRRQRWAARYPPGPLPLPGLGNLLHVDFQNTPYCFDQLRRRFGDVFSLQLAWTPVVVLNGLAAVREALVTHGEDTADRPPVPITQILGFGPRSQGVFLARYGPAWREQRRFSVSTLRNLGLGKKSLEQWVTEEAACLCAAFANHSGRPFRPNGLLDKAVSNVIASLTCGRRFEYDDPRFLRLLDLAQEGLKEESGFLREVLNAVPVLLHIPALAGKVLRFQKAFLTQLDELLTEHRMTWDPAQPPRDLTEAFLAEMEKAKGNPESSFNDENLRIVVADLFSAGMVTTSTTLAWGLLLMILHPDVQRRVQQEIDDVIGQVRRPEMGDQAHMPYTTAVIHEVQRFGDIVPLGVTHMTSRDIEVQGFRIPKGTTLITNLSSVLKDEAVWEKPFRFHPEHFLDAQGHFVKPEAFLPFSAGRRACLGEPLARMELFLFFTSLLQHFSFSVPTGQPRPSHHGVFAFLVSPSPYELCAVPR
T17 sequence (Q96D53 whole entry): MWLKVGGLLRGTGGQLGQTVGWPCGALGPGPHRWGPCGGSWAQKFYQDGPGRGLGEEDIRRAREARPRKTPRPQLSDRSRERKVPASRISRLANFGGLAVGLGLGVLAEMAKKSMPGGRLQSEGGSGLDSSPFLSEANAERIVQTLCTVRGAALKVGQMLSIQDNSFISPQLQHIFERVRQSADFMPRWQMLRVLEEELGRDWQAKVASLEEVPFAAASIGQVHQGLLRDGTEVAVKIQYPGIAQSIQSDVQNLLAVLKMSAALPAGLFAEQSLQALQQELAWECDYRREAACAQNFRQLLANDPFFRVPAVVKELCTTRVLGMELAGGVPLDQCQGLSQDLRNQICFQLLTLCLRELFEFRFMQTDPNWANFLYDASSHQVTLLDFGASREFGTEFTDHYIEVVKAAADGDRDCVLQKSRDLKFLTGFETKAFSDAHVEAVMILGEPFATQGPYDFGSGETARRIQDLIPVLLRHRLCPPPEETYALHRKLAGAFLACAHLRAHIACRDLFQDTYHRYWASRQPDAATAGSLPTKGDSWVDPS
T20 sequence (Q56UN5 whole entry): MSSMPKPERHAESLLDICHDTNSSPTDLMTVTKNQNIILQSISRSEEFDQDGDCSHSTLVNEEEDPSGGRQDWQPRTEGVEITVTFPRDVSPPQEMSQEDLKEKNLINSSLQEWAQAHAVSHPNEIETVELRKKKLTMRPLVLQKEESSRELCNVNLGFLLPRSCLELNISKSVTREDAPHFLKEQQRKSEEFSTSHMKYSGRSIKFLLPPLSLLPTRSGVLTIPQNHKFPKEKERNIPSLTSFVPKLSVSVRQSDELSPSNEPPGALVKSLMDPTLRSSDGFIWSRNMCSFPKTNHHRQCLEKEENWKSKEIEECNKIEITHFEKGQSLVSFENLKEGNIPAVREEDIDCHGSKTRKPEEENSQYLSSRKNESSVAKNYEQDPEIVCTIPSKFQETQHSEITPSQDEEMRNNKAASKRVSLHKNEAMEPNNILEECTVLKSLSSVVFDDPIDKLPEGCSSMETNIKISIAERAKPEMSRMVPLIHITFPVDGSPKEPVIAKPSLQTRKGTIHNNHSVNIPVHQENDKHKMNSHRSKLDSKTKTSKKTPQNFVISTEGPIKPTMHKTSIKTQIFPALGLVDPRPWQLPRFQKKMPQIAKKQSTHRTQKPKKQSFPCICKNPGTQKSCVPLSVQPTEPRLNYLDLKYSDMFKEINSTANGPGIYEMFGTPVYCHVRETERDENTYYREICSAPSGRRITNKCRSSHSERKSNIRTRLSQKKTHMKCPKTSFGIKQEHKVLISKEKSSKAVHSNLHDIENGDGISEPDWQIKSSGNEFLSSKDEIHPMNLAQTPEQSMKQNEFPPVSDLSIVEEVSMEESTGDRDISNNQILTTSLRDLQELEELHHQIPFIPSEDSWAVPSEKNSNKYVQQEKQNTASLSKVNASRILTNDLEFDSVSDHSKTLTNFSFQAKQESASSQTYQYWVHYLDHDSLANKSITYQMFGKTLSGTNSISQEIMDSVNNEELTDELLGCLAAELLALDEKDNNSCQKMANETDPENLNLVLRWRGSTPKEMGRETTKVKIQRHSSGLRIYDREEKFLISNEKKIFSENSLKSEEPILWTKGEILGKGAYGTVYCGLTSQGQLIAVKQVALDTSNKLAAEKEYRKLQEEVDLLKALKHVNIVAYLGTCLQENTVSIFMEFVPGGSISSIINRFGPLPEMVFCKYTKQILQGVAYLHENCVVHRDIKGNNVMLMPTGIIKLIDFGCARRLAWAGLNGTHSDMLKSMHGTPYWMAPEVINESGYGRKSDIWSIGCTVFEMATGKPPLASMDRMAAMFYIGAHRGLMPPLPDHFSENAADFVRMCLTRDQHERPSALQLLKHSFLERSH
T16 sequence (P30530 26-894): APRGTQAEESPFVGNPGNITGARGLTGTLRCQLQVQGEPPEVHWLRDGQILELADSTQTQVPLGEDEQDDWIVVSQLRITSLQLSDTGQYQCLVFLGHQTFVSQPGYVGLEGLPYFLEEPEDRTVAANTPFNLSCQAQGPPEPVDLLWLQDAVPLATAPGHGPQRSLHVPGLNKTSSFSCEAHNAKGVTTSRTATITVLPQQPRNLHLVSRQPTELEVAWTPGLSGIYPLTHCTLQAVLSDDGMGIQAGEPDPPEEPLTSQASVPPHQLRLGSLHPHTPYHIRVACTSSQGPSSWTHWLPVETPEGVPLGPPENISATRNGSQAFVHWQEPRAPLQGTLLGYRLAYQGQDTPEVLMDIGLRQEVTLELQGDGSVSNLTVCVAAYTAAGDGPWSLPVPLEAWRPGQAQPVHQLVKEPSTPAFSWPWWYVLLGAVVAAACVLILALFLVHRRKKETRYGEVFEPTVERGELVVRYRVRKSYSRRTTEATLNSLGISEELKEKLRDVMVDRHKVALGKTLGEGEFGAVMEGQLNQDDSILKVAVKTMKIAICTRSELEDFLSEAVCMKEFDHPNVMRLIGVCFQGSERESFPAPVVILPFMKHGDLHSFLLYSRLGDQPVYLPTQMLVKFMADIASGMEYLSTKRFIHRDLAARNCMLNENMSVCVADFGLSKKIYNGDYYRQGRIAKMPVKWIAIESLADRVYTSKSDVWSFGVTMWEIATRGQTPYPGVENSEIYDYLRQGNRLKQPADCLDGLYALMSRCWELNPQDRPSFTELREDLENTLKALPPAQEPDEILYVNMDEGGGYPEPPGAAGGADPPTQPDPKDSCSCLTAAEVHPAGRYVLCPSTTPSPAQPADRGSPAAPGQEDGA
T12 sequence (P42684 whole entry): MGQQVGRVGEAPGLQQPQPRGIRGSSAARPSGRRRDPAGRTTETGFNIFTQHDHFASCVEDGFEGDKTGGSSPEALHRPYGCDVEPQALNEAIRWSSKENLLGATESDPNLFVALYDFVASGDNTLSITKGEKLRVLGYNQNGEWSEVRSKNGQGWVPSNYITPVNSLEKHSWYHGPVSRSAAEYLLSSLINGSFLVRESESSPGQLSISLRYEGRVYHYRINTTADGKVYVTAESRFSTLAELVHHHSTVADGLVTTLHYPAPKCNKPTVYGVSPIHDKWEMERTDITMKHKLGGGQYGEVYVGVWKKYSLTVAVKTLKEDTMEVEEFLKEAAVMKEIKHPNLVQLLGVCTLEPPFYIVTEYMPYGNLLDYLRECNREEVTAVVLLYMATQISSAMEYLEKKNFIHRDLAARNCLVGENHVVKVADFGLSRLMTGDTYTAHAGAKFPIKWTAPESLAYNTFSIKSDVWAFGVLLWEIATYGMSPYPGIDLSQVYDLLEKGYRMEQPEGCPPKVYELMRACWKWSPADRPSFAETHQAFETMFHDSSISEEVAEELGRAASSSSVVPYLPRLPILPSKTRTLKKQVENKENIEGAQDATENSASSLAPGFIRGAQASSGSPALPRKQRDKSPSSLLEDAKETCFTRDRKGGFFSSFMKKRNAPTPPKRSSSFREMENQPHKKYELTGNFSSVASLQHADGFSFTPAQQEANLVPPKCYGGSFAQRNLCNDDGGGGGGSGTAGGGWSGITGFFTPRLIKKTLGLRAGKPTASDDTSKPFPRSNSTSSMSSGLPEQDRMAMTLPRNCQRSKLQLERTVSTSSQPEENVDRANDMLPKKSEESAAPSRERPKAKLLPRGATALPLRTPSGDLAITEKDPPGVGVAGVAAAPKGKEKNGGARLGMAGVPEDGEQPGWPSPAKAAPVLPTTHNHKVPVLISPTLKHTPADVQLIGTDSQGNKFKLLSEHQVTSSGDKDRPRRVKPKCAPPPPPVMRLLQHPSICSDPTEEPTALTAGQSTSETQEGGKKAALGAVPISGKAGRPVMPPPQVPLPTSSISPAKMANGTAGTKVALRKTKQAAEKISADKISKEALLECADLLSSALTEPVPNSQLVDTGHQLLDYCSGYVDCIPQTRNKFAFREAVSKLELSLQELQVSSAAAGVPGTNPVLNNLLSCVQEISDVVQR
T1 sequence (P0C1S8 whole entry): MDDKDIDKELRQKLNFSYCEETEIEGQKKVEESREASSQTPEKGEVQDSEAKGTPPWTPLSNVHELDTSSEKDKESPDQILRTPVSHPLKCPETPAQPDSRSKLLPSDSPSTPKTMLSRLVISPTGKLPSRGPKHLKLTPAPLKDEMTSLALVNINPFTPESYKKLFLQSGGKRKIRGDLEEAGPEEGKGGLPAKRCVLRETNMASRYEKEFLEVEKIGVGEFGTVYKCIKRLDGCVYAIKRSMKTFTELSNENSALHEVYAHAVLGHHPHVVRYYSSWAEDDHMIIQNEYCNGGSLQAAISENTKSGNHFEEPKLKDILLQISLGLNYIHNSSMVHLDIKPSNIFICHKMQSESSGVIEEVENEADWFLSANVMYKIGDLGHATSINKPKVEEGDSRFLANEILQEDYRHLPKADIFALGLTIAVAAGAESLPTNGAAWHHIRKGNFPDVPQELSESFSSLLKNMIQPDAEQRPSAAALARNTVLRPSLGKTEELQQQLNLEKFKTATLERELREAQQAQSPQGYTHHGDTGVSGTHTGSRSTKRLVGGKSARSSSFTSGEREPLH

Broadly, the Kd is the concentration at which binding is half-saturated. Broadly, the IC50 is the midpoint of a concentration-inhibition curve. Low readings indicate higher potency, high ones lower potency. The hepatocyte CLint is the rate of metabolic loss divided by the concentration. A high value points to faster metabolism. In the case of `COc1cc2ncnc(Nc3cccc(Cl)c3F)c2cc1OCCON1CCN(C)CC1` [Compound 9, N-(3-Chloro-2-fluorophenyl)-7-methoxy-6-(2-((4-methylpiperazin-1-yl)oxy)ethoxy)quinazolin-4-amine], the remaining binding at 1 µM in data set [1] is 100%; in data set [2], 100%; in data set [3], 94%; in data set [4] it was 6.6%; in [5], 92%; in data set [6], 94%. The remaining binding at 1 µM in [11] came to 89%; in data set [12], 64%; in data set [15] it was 16%; in data set [16] it was 16%; in [18], 84%; in [19] it was 100%. In addition, the remaining binding at 1 µM stood at 79% in data set [20], 4% in data set [21], 74% in data set [22] and 46% in [23]. Besides, the dissociation constant Kd was 21 nM in data set [7], 110 nM in data set [8] and 260 nM in data set [9]. The IC50 was more than 30000 nM in [10]; 1100 nM and 1110 nM in [17]. In [13] (beagle, dog, hepatocytes), this compound had a hepatocyte CLint at 2 h, 1 µM of 13 µL/min/1e6 cells. Besides, the “Remaining Percentages” value is on record as 88.01% in data set [13] (15 min); 79.61% in [13] (30 min); 68.74% in [13] (60 min); 60.01% in data set [13] (90 min); 41.31% in [13] (120 min). The “Count (# of wells)” value in data set [14] (TA1535+S9, 1.0E-04 M) was 0; in data set [14] (TA1535+S9, 1.0E-05 M), 3; in data set [14] (TA1535+S9, 5.0E-05 M) it was 0; in data set [14] (TA1535+S9, 5.0E-06 M), 1; in [14] (TA1535-S9, 1.0E-04 M), 0; in data set [14] (TA1535-S9, 1.0E-05 M), 0. Moreover, the “Count (# of wells)” value in [14] (TA1535-S9, 5.0E-05 M) is recorded as 0; in data set [14] (TA1535-S9, 5.0E-06 M), 0. In addition, the “Positive Significance (- to +++)” value in [14] (TA1535+S9, 1.0E-04 M) is listed as “-”; in data set [14] (TA1535+S9, 1.0E-05 M) it was “-”; in data set [14] (TA1535+S9, 5.0E-05 M), “-”; in data set [14] (TA1535+S9, 5.0E-06 M), “-”; in data set [14] (TA1535-S9, 1.0E-04 M), “-”; in data set [14] (TA1535-S9, 1.0E-05 M), “-”. The “Positive Significance (- to +++)” value in [14] (TA1535-S9, 5.0E-05 M) is recorded as “-”; in data set [14] (TA1535-S9, 5.0E-06 M), “-”.
On to `COc1cc2ncnc(Nc3cccc(Cl)c3F)c2cc1OCCON1CCOCC1` [Compound 7, N-(3-Chloro-2-fluorophenyl)-7-methoxy-6-(2-(morpholinooxy)ethoxy)quinazolin-4-amine], for which, in data set [24], the AMES entry was “Negative”.
